PubChem BioAssay AID1918948 (Molecular Pharmacology Branch, DTP, NCI, 2023)

Test system: K-562 leukemia growth, % test/control
Assay: Anticancer human tumor K-562 cell line growth inhibition;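 further: spheroids exposed to compounds for 7 days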;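 on viability, T/C: 100% = DMSO vehicle wells and lower values mean fewer viable cells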
Settings: spheroids with HUVEC and MSC; for IC50: curve of first compound; for viability, T/C: stronger effect = lower value
In short: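 Complex spheroids of tumor cells with HUVEC and human MSCs, exposed to iadademstat combined with other agents. Each agent tested in half-log steps from near clinical Cmax (else 10 microM top), DMSO ≤0.25%.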

In the case of `Cn1ncnc1C1c2n[nH]c(=O)c3cc(F)cc(c23)NC1c1ccc(F)cc1` (stereo not given) + NC1CCC(NC2CC2c2ccccc2)CC1, the IC50 (second compound 0.1 µM) is reported as greater than 0.1 µM, the IC50 (second compound 0.316 µM) is reported as greater than 0.1 µM and the IC50 (second compound 1 µM) is reported as greater than 0.1 µM. For the same compound, the IC50 (second compound 3.16 µM) was greater than 0.1 µM, the IC50 (second compound 10 µM) was greater than 0.1 µM and the viability, T/C (second compound 0.1 µM, first compound 0.000316 µM) was 102%. The viability, T/C (second compound 0.1 µM, first compound 0.001 µM) was 97.6%, the viability, T/C (second compound 0.1 µM, first compound 0.00316 µM) was 101% and the viability, T/C (second compound 0.1 µM, first compound 0.01 µM) was 101%. For the same compound, the viability, T/C (second compound 0.1 µM, first compound 0.0316 µM) was 101%, the viability, T/C (second compound 0.1 µM, first compound 0.1 µM) was 97% and the viability, T/C (second compound 0.316 µM, first compound 0.000316 µM) was 101%. For the same compound, the viability, T/C (second compound 0.316 µM, first compound 0.001 µM) was 102%, the viability, T/C (second compound 0.316 µM, first compound 0.00316 µM) was 102% and the viability, T/C (second compound 0.316 µM, first compound 0.01 µM) was 99%. The viability, T/C (second compound 0.316 µM, first compound 0.0316 µM) was 101%, the viability, T/C (second compound 0.316 µM, first compound 0.1 µM) was 98.9% and the viability, T/C (second compound 1 µM, first compound 0.000316 µM) was 108%. The viability, T/C (second compound 1 µM, first compound 0.001 µM) was 102%, the viability, T/C (second compound 1 µM, first compound 0.00316 µM) was 99.7% and the viability, T/C (second compound 1 µM, first compound 0.01 µM) was 103%. For the same compound, the viability, T/C (second compound 1 µM, first compound 0.0316 µM) was 102%, the viability, T/C (second compound 1 µM, first compound 0.1 µM) was 101% and the viability, T/C (second compound 3.16 µM, first compound 0.000316 µM) was 100%. The viability, T/C (second compound 3.16 µM, first compound 0.001 µM) was 103%, the viability, T/C (second compound 3.16 µM, first compound 0.00316 µM) was 104% and the viability, T/C (second compound 3.16 µM, first compound 0.01 µM) was 104%. It also gave a viability, T/C (second compound 3.16 µM, first compound 0.0316 µM) of 104%, a viability, T/C (second compound 3.16 µM, first compound 0.1 µM) of 101% and a viability, T/C (second compound 10 µM, first compound 0.000316 µM) of 99.3%. It also gave a viability, T/C (second compound 10 µM, first compound 0.001 µM) of 99.6%, a viability, T/C (second compound 10 µM, first compound 0.00316 µM) of 101% and a viability, T/C (second compound 10 µM, first compound 0.01 µM) of 101%. The viability, T/C (second compound 10 µM, first compound 0.0316 µM) was 98.5% and the viability, T/C (second compound 10 µM, first compound 0.1 µM) was 96.1%.
